Test results published in the supplement of paper PMC10307832.

Experiments:
Experiment in all cases: relative viability (nuclei count vs DMSO), 5 days (fraction); higher = more cells survive
Erlotinib + Pemetrexed = compound: C#Cc1cccc(Nc2ncnc3cc(OCCOC)c(OCCOC)cc23)c1 [Erlotinib] + Nc1nc2[nH]cc(CCc3ccc(C(=O)N[C@@H](CCC(=O)O)C(=O)O)cc3)c2c(=O)[nH]1 [Pemetrexed] (partner 0.2 µM)
Outline: (§1)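 Medians of duplicate plates are given as relative viability. That measure is the nuclei count in treated wells divided by the count in vehicle wells. Counts were taken on 4× images of lung cancer cell lines in 1536-well plates, 5 days after pin-tool dosing the day after seeding with one drug alone or a fixed anchor-drug dose plus five library-drug doses (not always all listed) in √10 steps.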

AT9283 + Pictilisib = compound: O=C(Nc1c[nH]nc1-c1nc2ccc(CN3CCOCC3)cc2[nH]1)NC1CC1 [AT9283] + CS(=O)(=O)N1CCN(Cc2cc3nc(-c4cccc5[nH]ncc45)nc(N4CCOCC4)c3s2)CC1 [Pictilisib] (partner 1 µM)
Outline: as §1

AT9283 + Bortezomib = compound: O=C(Nc1c[nH]nc1-c1nc2ccc(CN3CCOCC3)cc2[nH]1)NC1CC1 [AT9283] + CC(C)C[C@H](NC(=O)[C@H](Cc1ccccc1)NC(=O)c1cnccn1)B(O)O [Bortezomib] (partner 0.002 µM)
Outline: as §1

AT9283 + Decitabine = compound: O=C(Nc1c[nH]nc1-c1nc2ccc(CN3CCOCC3)cc2[nH]1)NC1CC1 [AT9283] + Nc1ncn([C@H]2C[C@H](O)[C@@H](CO)O2)c(=O)n1 [Decitabine] (partner 2 µM)
Outline: as §1

AT9283 + Luminespib = compound: O=C(Nc1c[nH]nc1-c1nc2ccc(CN3CCOCC3)cc2[nH]1)NC1CC1 [AT9283] + CCNC(=O)c1noc(-c2cc(C(C)C)c(O)cc2O)c1-c1ccc(CN2CCOCC2)cc1 [Luminespib] (partner 0.01 µM)
Outline: as §1

| Cell Line | relative viability (Erlotinib + Pemetrexed; first compound 0.02 µM) | relative viability (Erlotinib + Pemetrexed; first compound 0.2 µM) | relative viability (Erlotinib + Pemetrexed; first compound 0.6325 µM) | relative viability (Erlotinib + Pemetrexed; first compound 2 µM) | relative viability (AT9283 + Pictilisib; first compound 0.003 µM) | relative viability (AT9283 + Pictilisib; first compound 0.03 µM) | relative viability (AT9283 + Pictilisib; first compound 0.09487 µM) | relative viability (AT9283 + Pictilisib; first compound 0.3 µM) | relative viability (AT9283 + Bortezomib; first compound 0.003 µM) | relative viability (AT9283 + Bortezomib; first compound 0.03 µM) | relative viability (AT9283 + Bortezomib; first compound 0.09487 µM) | relative viability (AT9283 + Bortezomib; first compound 0.3 µM) | relative viability (AT9283 + Decitabine; first compound 0.003 µM) | relative viability (AT9283 + Decitabine; first compound 0.03 µM) | relative viability (AT9283 + Decitabine; first compound 0.09487 µM) | relative viability (AT9283 + Decitabine; first compound 0.3 µM) | relative viability (AT9283 + Luminespib; first compound 0.003 µM) | relative viability (AT9283 + Luminespib; first compound 0.03 µM) | relative viability (AT9283 + Luminespib; first compound 0.09487 µM) | relative viability (AT9283 + Luminespib; first compound 0.3 µM) |
| --- | --- | --- | --- | --- | --- | --- | --- | --- | --- | --- | --- | --- | --- | --- | --- | --- | --- | --- | --- | --- |
| NCI-H1755 | 0.477 | 0.398 | 0.402 | 0.368 | 0.437 | 0.395 | 0.296 | 0.261 | 0.983 | 0.91 | 0.498 | 0.529 | 0.712 | 0.803 | 0.67 | 0.527 | 0.607 | 0.446 | 0.553 | 0.407 |
| COR-L 105 | 0.967 | 0.835 | 0.535 | 0.352 | 0.405 | 0.273 | 0.279 | 0.28 | 0.758 | 0.303 | 0.352 | 0.249 | 0.67 | 0.394 | 0.317 | 0.328 | 1.02 | 0.334 | 0.401 | 0.33 |
| NCI-H647 | 0.173 | 0.187 | 0.19 | 0.151 | 0.43 | 0.159 | 0.0749 | 0.085 | 0.822 | 0.145 | 0.13 | 0.0938 | 0.427 | 0.401 | 0.205 | 0.127 | 0.152 | 0.201 | 0.169 | 0.183 |
| BEN | 0.766 | 0.83 | 1.03 | 0.766 | 0.501 | 0.555 | 0.188 | 0.224 | 0.688 | 0.739 | 0.242 | 0.27 | 0.52 | 0.557 | 0.347 | 0.347 | 0.28 | 0.336 | 0.198 | 0.107 |
| EPLC-272H | 0.385 | 0.329 | 0.29 | 0.371 | 0.318 | 0.26 | 0.199 | 0.165 | 0.786 | 0.831 | 0.802 | 0.122 | 0.379 | 0.395 | 0.185 | 0.161 | 0.332 | 0.246 | 0.133 | 0.149 |
| HCC-15 | 0.241 | 0.225 | 0.249 | 0.215 | 0.686 | 0.494 | 0.136 | 0.138 | 1.05 | 0.773 | 0.696 | 0.166 | 0.604 | 0.309 | 0.182 | 0.126 | 0.302 | 0.234 | 0.133 | 0.115 |
| NCI-H520 | 0.847 | 0.749 | – | 0.609 | 0.259 | 0.247 | 0.216 | 0.171 | 0.574 | 0.241 | 0.182 | 0.168 | 0.381 | 0.297 | 0.272 | 0.171 | 0.247 | 0.23 | 0.204 | 0.254 |
| EKVX | 0.411 | 0.283 | 0.286 | 0.19 | 0.419 | 0.411 | 0.199 | 0.142 | 0.996 | 0.652 | 0.636 | 0.351 | 0.38 | 0.246 | 0.234 | 0.215 | 0.874 | 0.836 | 0.555 | 0.307 |
